The molecules below were run on HSV-1 (assay: HSV-1 replication in infected Vero 76 cells, DNA hybridization capture assay). Conditions: Human alphaherpesvirus 1; HSV-1 in Vero 76 cells, MOI=0.001, 40-48 hours at 37° C.; read-out: IC50.
Type: cell-based, herpes simplex virus 1
Experimental: a) Tissue Culture and HSV Infection.
Vero 76 cells were maintained in MEM with Earle's salts, L-glutamine, 8% FBS (Hyclone, A-1111-L) and 100 units/mL Penicillin-100 μg/mL Streptomycin. For assay conditions, FBS was reduced to 2%. Cells are seeded into 96-well tissue culture plates at a density of 5×10^4 cells/well after being incubated for 45 min at 37° C. in the presence of HSV-1 or HSV-2 (MOI=0.001). Test compounds are added to the wells and the plates are incubated at 37° C. for 40-48 hours. Cell lysates are prepared as follows: media was removed and replaced with 150 μL/well 0.2 N NaOH with 1% Igepal CA 630 or NP-40. Plates were incubated up to 14 days at room temperature in a humidified chamber to prevent evaporation.
(b) Preparation of Detection DNA.
For the detection probe, a gel-purified, digoxigenin-labeled, […] PCR fragment of the HSV UL-15 sequence was utilized. PCR conditions included 0.5 μM primers, 180 μM dTTP, 20 μM dUTP-digoxigenin (Boehringer Mannheim 1558706), 200 μM each of dATP, dCTP, and dGTP, 1×PCR Buffer II (Perkin Elmer), 2.5 mM MgCl2, 0.025 units/μL of AmpliTaq Gold polymerase (Perkin Elmer), and 5 ng of gel-purified HSV DNA per 100 μL Extension conditions were 10 min at 95° C., followed by 30 cycles of 95° C. for 1 min, 55° C. for 30 sec, and 72° C. for 2 min. The amplification was completed with a 10-min incubation at 72° C. Primers were selected to amplify a 728 bp probe spanning a section of the HSV1 UL15 open reading frame (nucleotides 249-977). Single-stranded transcripts were purified with Promega M13 Wizard kits. The final product was mixed 1:1 with a mixture of 6 M GuSCN, 100 mM EDTA and 200 μg/mL herring sperm DNA and stored at 4° C.
(c) Preparation of Capture Plates.
The capture DNA plasmid (HSV UL13 region in pUC) was linearized by cutting with Xba I, denatured for 15 min at 95° C. and diluted immediately into Reacti-Bind DNA Coating Solution (Pierce, 17250, diluted 1:1 with TE buffer, pH 8) at 1 ng/μL. 75 μL/well were added to Corning (#3922 or 9690) white 96-well plates and incubated at room temperature for at least 4 hrs before washing twice with 300 μL/well 0.2×SSC/0.05% Tween-20 (SSC/T buffer). The plates were then incubated overnight at room temperature with 150 μL/well 0.2 N NaOH, 1% IGEPAL and 10 μg/mL herring sperm DNA.
Twenty-seven (27) μL of cell lysate was combined with 45 μL of hybridization solution (final concentration: 3M GuSCN, 50 mM EDTA, 100 μg/ml salmon sperm DNA, 5×Denhardt's solution, 0.25×APE, and 5 ng of the digoxigenin-labeled detection probe). APE is 1.5 M NH4-acetate, 0.15 M NH4H2 phosphate, and 5 mM EDTA adjusted to pH 6.0. Mineral oil (50 μL) was added to prevent evaporation. The hybridization plates were incubated at 95° C. for 10 minutes to denature the DNA, then incubated at 42° C. overnight. The wells were washed 6× with 300 μL/well SSC/T buffer then incubated with 75 μL/well anti-digoxigenin-HRP-conjugated antibody (Boehringer Mannheim 1207733, 1:5000 in TE) for 30 min at room temperature. The wells were washed 6× with 300 μL/well with PBS/0.05% Tween-20 before 75 μL/well SuperSignal LBA substrate (Pierce) was added. The plates were incubated at room temperature for 30 minutes and chemiluminescence was measured in a Wallac Victor reader.
The following results were obtained for HSV-1.
Work on `Fc1ccc(-c2nn3ccccc3c2-c2ccnc(NCCc3cnc[nH]3)c2)cc1` [Example 1, 4-[2-(4-Fluorophenyl)pyrazolo[1,5-a]pyridin-3-yl]-N-[2-(1H-imidazol-5-yl)ethyl]-2-pyridinamine] yielded an IC50 of 700 nM. Work on `CCCCNc1cc(-c2c(-c3ccc(F)cc3)nn3ccccc23)ccn1` [Example 2, N-Butyl-4-[2-(4-fluorophenyl)pyrazolo[1,5-a]pyridin-3-yl]-2-pyridinamine] yielded an IC50 of 1600 nM. `OCCCNc1cc(-c2c(-c3ccc(F)cc3)nn3ccccc23)ccn1` [Example 3, 3-(4-[2-(4-Fluorophenyl)pyrazolo[1,5-a]pyridin-3-yl]-2-pyridinylamino)-1-propanol] showed an IC50 of 1500 nM. In the case of `NCCCNc1cc(-c2c(-c3ccc(F)cc3)nn3ccccc23)ccn1` [Example 4, N^1-4-[2-(4-Fluorophenyl)pyrazolo[1,5-a]pyridin-3-yl]-2-pyridinyl-1,3-propanediamine], the IC50 is reported as 20000 nM. `CCCCCCNc1cc(-c2c(-c3ccc(F)cc3)nn3ccccc23)ccn1` [Example 5, 4-[2-(4-Fluorophenyl)pyrazolo[1,5-a]pyridin-3-yl]-N-hexyl-2-pyridinamine] was tested, and the IC50 was 5000 nM. Work on `COc1ccc(CNc2cc(-c3c(-c4ccc(F)cc4)nn4ccccc34)ccn2)cc1` [Example 6, 4-[2-(4-Fluorophenyl)pyrazolo[1,5-a]pyridin-3-yl]-N-(4-methoxybenzyl)-2-pyridinamine] yielded an IC50 of 4200 nM. `Fc1ccc(-c2nn3ccccc3c2-c2ccnc(NCc3cccnc3)c2)cc1` [Example 7, 4-[2-(4-Fluorophenyl)pyrazolo[1,5-a]pyridin-3-yl]-N-(3-pyridinylmethyl)-2-pyridinamine] showed an IC50 of 6200 nM. `CCCNc1cc(-c2c(-c3ccc(F)cc3)nn3ccccc23)ccn1` [Example 8, 4-[2-(4-Fluorophenyl)pyrazolo[1,5-a]pyridin-3-yl]-N-propyl-2-pyridinamine] showed an IC50 of 2800 nM. `OCCNc1cc(-c2c(-c3ccc(F)cc3)nn3ccccc23)ccn1` [Example 9, 2-(4-[2-(4-Fluorophenyl)pyrazolo[1,5-a]pyridin-3-yl]-2-pyridinylamino)-1-ethanol] gave an IC50 of 2400 nM. With `CN(C)c1cc(-c2c(-c3ccc(F)cc3)nn3ccccc23)ccn1` [Example 11, 4-[2-(4-Fluorophenyl)pyrazolo[1,5-a]pyridin-3-yl]-N,N-dimethyl-2-pyridinamine] the IC50 was 4400 nM. `Fc1ccc(-c2nn3ccccc3c2-c2cc(F)nc(NCc3ccccc3)c2)cc1` [Example 12, N-Benzyl-6-fluoro-4-[2-(4-fluorophenyl)pyrazolo[1,5-a]pyridin-3-yl]-2-pyridinamine] was tested, and the IC50 was 3900 nM. `CC(C)Nc1cc(-c2c(-c3ccc(F)cc3)nn3cc(C(F)(F)F)ccc23)ccn1` [Example 13, 4-[2-(4-Fluorophenyl)-6-trifluoromethylpyrazolo[1,5-a]pyridin-3-yl]-N-isopropyl-2-pyridinamine] showed an IC50 of 1200 nM. `OCCCNc1cc(-c2c(-c3ccc(F)cc3)nn3cc(C(F)(F)F)ccc23)ccn1` [Example 14, 3-(4-[2-(4-Fluorophenyl)-6-trifluoromethylpyrazolo[1,5-a]-pyridin-3-yl]-2-pyridinylamino)-1-propanol] was tested, and the IC50 was 2000 nM. Molecule `NCCCNc1cc(-c2c(-c3ccc(F)cc3)nn3cc(Br)ccc23)ccn1` [Example 15, N-(3-Aminopropyl)-4-[6-bromo-2-(4-fluorophenyl)-pyrazolo[1,5-a]pyridin-3-yl]-2-pyridinamine] has an IC50 of 4000 nM. `CCCCNc1nccc(-c2c(-c3ccc(F)cc3)nn3ccccc23)n1` [Example 16, N-Butyl-4-[2-(4-fluorophenyl)pyrazolo[1,5-a]pyridin-3-yl]-2-pyrimidin-amine] showed an IC50 of over 20000 nM. Work on `CC(C)Nc1nccc(-c2c(-c3ccc(F)cc3)nn3ccccc23)n1` [Example 17, 4-[2-(4-Fluorophenyl)pyrazolo[1,5-a]pyridin-3-yl]-N-(2-propyl)-2-pyrimidinamine] yielded an IC50 of 1500 nM. `Nc1nccc(-c2c(-c3ccc(F)cc3)nn3ccccc23)n1` [Example 18, 4-[2-(4-Fluorophenyl)pyrazolo[1,5-a]pyridin-3-yl]-2-pyrimidinamine] was tested, and the IC50 was 5400 nM. Molecule `Nc1nccc(-c2c(-c3ccc(F)cc3)nn3cc(C(F)(F)F)ccc23)n1` [Example 19, 4-[2-(4-Fluorophenyl)-6-trifluoromethylpyrazolo[1,5-a]pyridin-3-yl]-2-pyrimidinamine] has an IC50 of over 40000 nM. For `Fc1ccc(-c2nn3cc(C(F)(F)F)ccc3c2-c2ccnc(NCc3ccccc3)n2)cc1` [Example 20, N-Benzyl-4-[2-(4-fluorophenyl)-6-trifluoromethylpyrazolo[1,5-a]pyridin-3-yl]-2-pyrimidinamine], the IC50 was 16000 nM. Work on `Fc1ccc(-c2nn3cc(C(F)(F)F)ccc3c2-c2ccnc(NC3CC3)n2)cc1` [Example 21, N-Cyclopropyl-4-[2-(4-fluorophenyl)-6-trifluoromethylpyrazolo[1,5-a]pyridin-3-yl]-2-pyrimidinamine] yielded an IC50 of 800 nM. `Fc1ccc(-c2nn3cc(C(F)(F)F)ccc3c2-c2ccnc(NCC(F)(F)F)n2)cc1` [Example 22, 4-[2-(4-Fluorophenyl)-6-trifluoromethylpyrazolo[1,5-a]pyridin-3-yl]-N-(2,2,2-trifluoroethyl)-2-pyrimidinamine] was tested, and the IC50 was 4300 nM. With `OCCCNc1nccc(-c2c(-c3ccc(F)cc3)nn3cc(C(F)(F)F)ccc23)n1` [Example 23, 3-(4-[2-(4-Fluorophenyl)-6-trifluoromethylpyrazolo[1,5-a]pyridin-3-yl]-2-pyrimidinylamino)-1-propanol] the IC50 was 1000 nM. In the case of `N#Cc1ccc2c(-c3ccnc(NC4CC4)n3)c(-c3ccc(F)cc3)nn2c1` [Example 24, N-Cyclopropyl-4-[6-cyano-2-(4-fluorophenyl)pyrazolo[1,5-a]pyridin-3-yl]-2-pyrimidinamine], the IC50 is reported as 200 nM. In the case of `NC(=O)c1ccc2c(-c3ccnc(NCCCO)n3)c(-c3ccc(F)cc3)nn2c1` [Example 25, 2-(4-Fluorophenyl)-3-(4-(2-(3-hydroxypropyl)amino)pyrimidinyl)-6-pyrazolo-[1,5-a]pyridinylcarboxamide], the IC50 is reported as 5500 nM. Molecule `Fc1ccc(-c2nn3ccccc3c2-c2ccnc(NCCc3cnc[nH]3)n2)cc1` [Example 26, 4-[2-(4-Fluorophenyl)pyrazolo[1,5-a]pyridin-3-yl]-N-[2-(1H-imidazol-5-yl)ethyl]-2-pyrimidinamine] has an IC50 of 150 nM. In the case of `Fc1ccc(-c2nn3ccccc3c2-c2ccnc(NCc3cccnc3)n2)cc1` [Example 27, 4-[2-(4-Fluorophenyl)pyrazolo[1,5-a]pyridin-3-yl]-N-(3-pyridinylmethyl)-2-pyrimidinamine], the IC50 is reported as 500 nM. With `Fc1ccc(-c2nn3ccccc3c2-c2ccnc(NCc3ccccn3)n2)cc1` [Example 28, 4-[2-(4-Fluorophenyl)pyrazolo[1,5-a]pyridin-3-yl]-N-(2-pyridinylmethyl)-2-pyrimidinamine] the IC50 was 730 nM. `Fc1ccc(-c2nn3ccccc3c2-c2ccnc(NCc3ccncc3)n2)cc1` [Example 29, 4-[2-(4-Fluorophenyl)pyrazolo[1,5-a]pyridin-3-yl]-N-(4-pyridinylmethyl)-2-pyrimidinamine] showed an IC50 of 10000 nM. `CCCCCNc1cc(-c2c(-c3ccc(F)cc3)nn3ccccc23)ccn1` [Example 30, 4-[2-(4-Fluorophenyl)pyrazolo[1,5-a]pyridin-3-yl]-N-pentyl-2-pyridinamine] was tested, and the IC50 was 4000 nM. Work on `CCCCNc1nccc(-c2c(-c3ccc(F)cc3)nn3cc(C(F)(F)F)ccc23)n1` [Example 31, N-Butyl-4-[2-(4-fluorophenyl)-6-trifluoromethylpyrazolo-[1,5-a]pyridin-3-yl]-2-pyrimidinamine] yielded an IC50 of 1700 nM.

From patent US20050107400A1, “Use of pyrazolopyridines as therapeutic compounds” (priority 2001, published 2005)
